According to patent US20040235086A1, “Detection of cellular contaminants in samples of non-living material” (priority 2001, published 2004):

How the values were obtained:
[1] = tested on: Escherichia coli bacteria
Experimental: The presence of living cells, including bacterial cells, in a sample can be detected by addition of hydrogen peroxide which will be degraded by catalase activity present in the cells, which causes heat production.
Escherichia coli bacteria were grown on 37° Celsius in Liquid Broth. Samples of bacteria are taken when growth is in the log fase and is estimated to be around 4.10e8 bacteria/ml, which corresponds to around 600 000 bacteria per well.
A 30% (w/w) hydrogen peroxide solution from Sigma was used directly.
Measurements were performed using a microcalorimeter. The top well was provided with 1.5 μl of the bacterial solution in LB, while the bottom well contained 1.5 μl LB only.
When a steady baseline was obtained (10 min) 0.5 μl of the hydrogen peroxide solution was added to each of the wells.

Hepatocyte cells = test: Microcalorimetric detection of heat production on uncoupling of oxidative phosphorylation in hepatocytes; format: cell-based
Experimental: Hepatocyte cells were grown on 37 degrees Celsius with 5% CO2, Rinsed with Versene, then loosened with EDTA-trypsine and washed with PBS. Concentration was 1,88. 10e7 cells/ml or about 28 000 cells in a well.
The uncoupler CCCF was dissolved in DMSO to a stock concentration of 100 mM, the diluted to 10 mM again in DMSO, and a final working concentration of 400 μM was diluted in H2O.
A sample of hepatocytes was introduced in the adjoining recipients (hereinafter referred to as top and bottom well) of a microcalorimeter. The thermopile, which is located between the two recipients allows the measurement of a minute temperature difference between the samples in each recipient by measuring a voltage difference. Sensitivity was determined to be 15 mV/K (10.7 V/W). The following procedure was used:
adding of 1.5 μl of hepatocyte solution was added to the top and bottom well of the microcalorimeter
0.5 μl of a 100 μM solution of uncoupler was added to the bottom well, while the same volume of the buffer solution was added to the top well
At its maximum (reached after 10 min), the voltage difference between the two wells was recorded. From this value, the temperature difference and the heat production difference could be determined.

Row | Structure (SMILES) | maximum temperature difference ([1]; 0.5 μl of 30% (w/w) hydrogen peroxide added to 1.5 μl E. coli in LB (around 600 000 bacteria per well) vs LB only) [mK] | total enthalpy change ([1]; calculated from Tmax=ΔH/2C, heat capacity 10 mJ/K after addition of hydrogen peroxide) [mJ] | maximum voltage difference between the two wells (Hepatocyte cells; 0.5 μl of 100 μM uncoupler solution added to 1.5 μl hepatocyte solution (about 28 000 cells/well), maximum reached after 10 min, vs buffer well) [μV] | heat production difference per cell (Hepatocyte cells; hepatocytes, based on number of cells added to each well) [nW] | temperature difference (voltage difference divided by sensitivity of the microcalorimeter) (Hepatocyte cells; hepatocytes, uncoupler well vs buffer well, sensitivity 15 mV/K) [mK]
1 | OO [hydrogen peroxide] | 400 | 80 | – | – | –
2 | N#CC(C#N)=NNc1cccc(Cl)c1 [CCCF, carbonylcyanide-3-chlorophenylhydrazone] | – | – | 800 | 3 | 50
